Laboratory results: patent US20160340674A1, “Compositions and Methods to Inhibit EZH2 for the Treatment of Cardiovascular Diseases” (UNIVERSITY OF ROCHESTER, priority 2014, published 2016)

Tested on: human umbilical vein endothelial cells (HUVECs)
Experiment: KLF2 and eNOS gene expression in endothelial cells treated with GSK126 (RT-PCR and q-PCR)
Assay type: cell-based
Text: Experiments were designed to determine the effects of the EZH2 inhibitor GSK126 on expression of genes KLF2 and eNOS in endothelial cells. Histone methylation is an important epigenetic modification. Histone 3 lysine 27 (H3K27) is correlated with transcriptional repression. EZH2, a histone methytransferase, is critical for the epigenetic maintenance of the H3K27me3 repressive chromatin mark. To determine whether the alternation of histone methylation affects gene expression in endothelial cells, experiments were designed to assess the effects of an EZH2 inhibitor GSK126. […]

[1] = 0.02 μM GSK126 for different times, RT-PCR and q-PCR (FIG. 1)

CC[C@H](C)n1cc(C)c2c(C(=O)NCc3c(C)cc(C)[nH]c3=O)cc(-c3ccc(N4CCNCC4)nc3)cc21 [GSK126, (S)-1-(sec-butyl)-N-((4,6-dimethyl-2-oxo-1,2-dihydropyridin-3-yl)methyl)-3-methyl-6-(6-(piperazin-1-yl)pyridin-3-yl)-1H-indole-4-carboxamide]
level of KLF2 mRNA [1]: increased
level of eNOS mRNA [1]: increased
KLF2 expression (24 hours at different concentrations (FIG. 2A)): dose-dependently increased
eNOS expression (24 hours at different concentrations (FIG. 2B)): dose-dependently increased
